The test system of assay [1] is P53, PUMA, Caspase 3, 8, 9, Bcl-2, PI3K, AKT genes in HepG2 cells. As to the kind of experiment: Gene expression (RT-PCR) of apoptosis-related genes. The conditions noted are these: HepG2, IC50 concentration, 48 h, control = 1. Format: cell-based, human. The procedure: The target genes of P53, PUMA, Caspases 3, 8, and 9, Bcl-2, PI3K, and AKT were chosen according to the interactive functional association network of the tested protein set using String bioinformatics database for analysis as shown in Supplementary Figure S1. HepG2 cells were treated for 48 h at 37 °C with the IC50 value of the compound 4 and followed by real-time PCR analysis for control and treated cells of the following genes, P53, PUMA, BCL2, CASP3, CASP8, CASP9, PI3k, and AKT, using the specific primers mentioned in Supplementary Table S3 compared to the control cells. Relative gene expression was calculated utilizing the ΔΔCT equation with normalization to the housekeeping beta-actin gene. Results were shown as a fold change in the mentioned gene expression in the treated versus control cells.
HepG2 cells were treated for 48 h at 37 °C with the IC50 value of the compound 4 and were collected for real-time PCR analysis with the perfect primer pairs (Supplementary, Table 1) of the following eight genes (P53, PUMA, BCL2, CASP3, CASP8, CASP9, PI3k and AKT) compared to the control cells, and for analysis first total RNA was extracted using RNeasy Mini Kit (Qiagen) following the manufacturer protocol of the kits than RNA was assessed for both the quality and quantity of RNA using NanoDrop ND-1000 spec-trophotometer at the absorbance ratio 260/280 nm [NanoDrop Tech., Inc. DE, USA]. Also, Whole RNA quality was examined by 1% agarose gel electrophoresis and afterward cDNA was obtained from one μg RNA using I-Script cDNA synthesis kit (BioRad). qRT-PCR were executed utilizing 10 ng of cDNA and Applied Biosystems Sybr Green master […]
conditions were 5 min [95 ◦C], followed by 45 cycles for 15 s [95 ◦C], for 60 s [58, 60, 62 ◦C] and for 1 min [72 ◦C] using applied Biosystems Step-One qRT-PCR (USA). Relative genes expression was finally calculated utilizing the ΔΔCT equation with normalization to that of the housekeeping beta-actin gene. Results were shown as fold change in gene expres-sion in the treated cells versus that of the control. […]

A short description of assay [2]: Hepatic oxidant and antioxidant assessment. The conditions noted are these: liver homogenate, SEC-bearing mice, 6 mg/kg BW. The format is in vivo. As to the method:
We randomly divided 50 mice into groups 5 groups (10 mice in each group): normal control (I) (mice injected intraperitoneally with the same volume of solvent for 14 consecutive days); group II, a group of normal mice treated with compound 4 (mice injected intraperitoneally with newly produced compound 4 at a dose of 6 mg/kg per day for 14 days); group III, solid tumor group (mice were implanted with solid tumor); group IV, group were treated with 5-FU (after 10 days of tumor implantation, mice were treated with 6 mg/kg only once); and group V, solid tumor group were treated with compound 4 (after 10 days of tumor implantation, mice were treated with 6 mg/kg only once). after one day of the previous treatment, 10 mice from each group were sacrificed and tumor weight, tumor volume (length and width of solid femoral tumor), blood and liver samples were obtained from each group. A portion of each blood sample taken was used for complete blood count (CBC) and the rest was centrifuged to obtain the serum. Serum was used for biochemical parameter estimation. The livers were rapidly dissected, washed with isotonic saline, and dried. The experiment design is summarized in Supplementary Figure S3.
In liver tissue homogenate, a standard commercial kit (BioDiagnostic, Cairo, Egypt) was used to evaluate oxidation and antioxidant parameters according to its methodology, as previously published in Nafie et al., 2020 [57]. Lipid peroxidation (MDA) and nitric oxide (NO) are oxidants, while reduced glutathione (GSH), catalase (CAT), and superoxide dismutase (SOD) are antioxidants.

The structures appear in SMILES notation.

Take `O=C1NC(=S)N(c2ccc(O)cc2)/C1=C/c1cccs1` [Compound 4, (E)-1-(4-Hydroxyphenyl)-5-(thiophen-2-ylmethylene)-2-thioxoimidazolidin-4-one]: in assay [1] (reduced), the “AKT gene expression, fold change” value is recorded as 0.38 fold; the “BCL-2 gene expression, fold change” value is reported as 0.25 fold; the “PI3K gene expression, fold change” value was determined as 0.497 fold. For the same compound, in assay [1] (upregulation), the “Caspase 3 gene expression, fold change” value was determined as 10.71 fold; the “Caspase 8 gene expression, fold change” value was found to be 1.98 fold; the “Caspase 9 gene expression, fold change” value turned out to be 7.14 fold; the “P53 gene expression, fold change” value is on record as 7.61 fold. Further, in assay [1] (upregulation), the “PUMA gene expression, fold change” value is listed as 2.31 fold. Further, the “GSH (antioxidant)” value in assay [2] (SEC control 18.23) is on record as 39.27 mg/g Tissue. For the same compound, in assay [2] (SEC control 21.69), the “CAT (antioxidant)” value is recorded as 46.9 U/g Tissue. The “SOD (antioxidant)” value in assay [2] (SEC control 27.36) was 48.69 U/g Tissue. For the same compound, the “NO (oxidative stress)” value in assay [2] (SEC control 79.69) turned out to be 42.38 U/g Tissue. Also, the “MDA (oxidative stress)” value in assay [2] (SEC control 98.39, n = 6) came to 73.36 nmol/g Tissue.

(Values after PMC8746798, “Evaluation of 2-Thioxoimadazolidin-4-one Derivatives as Potent Anti-Cancer Agents through Apoptosis Induction and Antioxidant Activation: In Vitro and In Vivo Approaches” (Molecules, 2021).)
